According to patent US20240294499A1, “TARGETED PROTEIN DEGRADATION USING BIFUNCTIONAL COMPOUNDS THAT BIND UBIQUITIN LIGASE AND TARGET MCL-1 PROTEIN” (Captor Therapeutics S.A., priority 2021, published 2024):

Key:
[1] = system: hiPSC-CM (iCELL Cardiomyocytes); assay: Cardiac safety: hiPSC-CM cell viability assay (CTG); type: cell-based, human; conditions: viability, CTG assay, treatment until day 14
Excerpt: The effect of various compounds of the invention and a reference compounds AZD5991 and MIK665 on cardiac safety was investigated by the evaluation of viability with CTG assay (Promega; cat #G7572) in iCELL™ Cardiomyocytes from FUJIFILM Cellular Dynamics (Catalog number: 11713).
Cells were thawed, counted using an automated cell counter (TC20, Bio-Rad) and seeded in 96 well plates (Greiner-BioOne; 655098) previously coated with 0.1% gelatin (Sigma-Aldrich; G1890) using Plating Medium (#M1001) following the instructions of the iCELL cardiomyocytes User Guide. Forty ml of Plating Medium was used to equally distribute the cells in four 96 well plates. Cells were then placed in the incubator at 37° C., 5% CO2 and left undisturbed for 48 hours. Compounds were serially diluted in DMSO and then further diluted to final assay concentration using maintenance medium (#M1003). Final DMSO concentration was 0.5%. Forty eight hours after plating, non-adherent cells and debris were washed as described in the User Guide. Plating medium was then replaced with maintenance medium containing diluted compounds or DMSO (as control). Medium was then changed every 2 days with fresh medium containing compounds or DMSO until the end of the treatment. On day 14, only medium without compounds was used immediately before the CTG assay. Luminescence signal was measured using a CLARIOstar Plus Multi-Mode Microplate Reader (574-590 nm).

[2] = system: iCELL Cardiomyocytes; assay: Cardiac safety: caspase 3 and 7 activation (Caspase-Glo 3/7) in iCELL Cardiomyocytes; type: cell-based; conditions: 1.2 uM, 24 hours incubation, vs DMSO
Excerpt: The effect of various compounds of the invention and a reference compound AZD5991 on cardiac safety was investigated by the evaluation of caspase 3 and 7 activation using Caspase-Glo 3/7 Assay (Promega; G8092) in iCELL™ Cardiomyocytes from FUJIFILM Cellular Dynamics (Catalog number: 11713). In the Caspase-Glo® 3/7 Assay, the luminescence (measured as Relative Luciferase Units, RLU) is proportional to the amount of caspase activity present in each sample.
The assay is initiated by thawing and seeding iCell® Cardiomyocytes as specified in the User Guide. After 48 hours, the cells are washed to remove unattached cells and debris and immediately treated with compounds or DMSO diluted in the maintenance medium (FCDI; cat: M1003). Compound concentrations used in this assay: 7 points 1/3 dilution curve starting at 100 uM. After 24 hours of incubation with compounds, caspase activity is measured by the addition of the Caspase-Glo® 3/7 Reagent followed by the luminescence measurement.
The analysis of the results is performed by calculation of the fold change in caspase 3/7 activity at a given compound concentration. Fold change is calculated with the formula: […]
where: • RLU Xi is the Relative Luciferase Units of sample I; • RLU BG is the Background Relative Luciferase Units; • RLU C is the Relative Luciferase Units of Control (DMSO).
The experiments were performed in technical duplicates.

[3] = system: iPSC-derived cardiomyocytes (iPSC-CMs); assay: caspase 3/7 activity in iPSC-derived cardiomyocytes; type: cell-based; conditions: 100 μM, FIG. 5

MIK665 [reference compound]
Average pIC50 by molecule hiPSC-CM [1]: 6.9

Cc1c2c(nn1C)CSCc1cc(n(C)n1)CSc1cc(c3ccccc3c1)OCCCc1c(C(=O)O)n(C)c3c-2c(Cl)ccc13 [AZD5991, reference compound]
IC50 ([1]; Homo sapiens, Cardiomyocyte, 336 h, read-out: Average pIC50 by molecule hiPSC-CM (converted)): 631 nM
Fold change at 1.2 uM (caspase 3/7 activity in cardiomyocytes) [2]: 2.9 ± 0.5

Cc1c2c(nn1C)CSCc1cc(n(C)n1)CSc1cc(c3ccccc3c1)OCCCc1c(C(=O)O)n(C)c3c-2c(Cl)ccc13 [AZD-5991]
cell death in iPSC-CMs (caspase 3/7 assay, concentration point not displayed) [3]: excessive cell death
